Data on eight molecules can be found in PubChem BioAssay (NCI).

Among the test systems are A498 renal; HOP-62 NSCLC; M14 melanoma; MALME-3M melanoma; MDA-MB-435; MOLT-4 leukemia; SF-539 CNS; SNB-19 CNS; SNB-75 CNS; UACC-62 melanoma.
Common to all, as to test: NCI-60 cell line screen, 48 h

Several values for one entry are separate records, joined by “and”; a condition that tells them apart may be missing. Equal values may be shown once.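 96-well plates; 48 h exposure; 5 concentrations. Endpoints by linear interpolation between flanking doses. Not reached: highest tested concentration assigned. At the GI50, growth is halved. The concentration for full growth arrest is given as TGI.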

For `CC1(C)CCc2c(c(N=Nc3ccccc3F)c3ccccc3c2O)O1`, the GI50 is 25.9 µM in the test with A498 renal; 45.3 µM in the test with HOP-62 NSCLC; over 100 µM in the test with M14 melanoma; 34.5 µM in the test with MALME-3M melanoma; over 100 µM in the test on MDA-MB-435; over 100 µM in the test with MOLT-4 leukemia. The GI50 in the test with SF-539 CNS was 21.2 µM; in the test on SNB-19 CNS it was 36.8 µM; in the test with SNB-75 CNS it was 20.4 µM; in the test with UACC-62 melanoma, over 100 µM. Moreover, the TGI in the test with A498 renal, in the test with HOP-62 NSCLC, with M14 melanoma, in the test on MALME-3M melanoma, in the test on MDA-MB-435 and in the test with MOLT-4 leukemia was over 100 µM in each case. Also, the TGI is 40.4 µM in the test on SF-539 CNS, over 100 µM in the test with SNB-19 CNS, 53.3 µM in the test with SNB-75 CNS and over 100 µM with UACC-62 melanoma.

For `FC(F)(F)c1cc(NC(=S)N2c3ccccc3-n3cccc3C2c2cccnc2)cc(C(F)(F)F)c1` (stereo not given), the GI50 is 13.7 µM in the test with A498 renal; 7.23 µM in the test on HOP-62 NSCLC; 11.3 µM in the test on M14 melanoma; 6.57 µM in the test on MDA-MB-435; 3.96 µM in the test on MOLT-4 leukemia; 14.7 µM with SF-539 CNS. Also, the GI50 was 7.55 µM with SNB-19 CNS, 7.07 µM in the test with SNB-75 CNS and 11.7 µM in the test with UACC-62 melanoma. For the same molecule, the TGI is 30.3 µM in the test with A498 renal; 21.7 µM in the test with HOP-62 NSCLC; 28.2 µM in the test with M14 melanoma; 26.9 µM in the test with MALME-3M melanoma; 22.1 µM in the test on MDA-MB-435; 20.2 µM with MOLT-4 leukemia. Also, the TGI in the test on SF-539 CNS was found to be 37.4 µM; with SNB-19 CNS, 29.9 µM; with SNB-75 CNS, 22.7 µM; in the test with UACC-62 melanoma it was 24.4 µM.

Take `CC1=C2[C@@H](CC1)[C@]1(C)O[C@@](C(C)C)(C[C@H]1OC(=O)CO)[C@H]2OC(=O)CCCc1ccccc1`: the GI50 in the test with A498 renal is 6.4 µM; with HOP-62 NSCLC it was 13.4 µM; with M14 melanoma, 7.78 µM; with MALME-3M melanoma, 6.52 µM; in the test on MDA-MB-435 it was 13.1 µM; in the test with MOLT-4 leukemia it was 3.66 µM. Further, the GI50 in the test with SF-539 CNS was 14.2 µM; with SNB-19 CNS, 12.4 µM; with SNB-75 CNS, 2.08 µM; with UACC-62 melanoma, 3.42 µM. The TGI with A498 renal amounted to 19.6 µM; in the test on HOP-62 NSCLC, 26.8 µM; in the test with M14 melanoma, 21.8 µM; in the test on MALME-3M melanoma, 19.8 µM; with MDA-MB-435, 26.2 µM; in the test on MOLT-4 leukemia, 15.2 µM. Moreover, the TGI in the test on SF-539 CNS came out at 27.5 µM; with SNB-19 CNS it was 24.9 µM; with SNB-75 CNS, 18.5 µM; with UACC-62 melanoma, 13.2 µM.

On to `CC1OC(CC(=O)O)Cc2c1c(O)c1c(O)cc(-c3cc(=O)c4c(=O)c5c(c(=O)c=4c3=O)CC(CC(=O)O)OC5C)c(O)c1c2O` (stereo not given), for which the TGI in the test on A498 renal was 58.9 µM; with HOP-62 NSCLC, over 100 µM; in the test with M14 melanoma, 32 µM and 75.9 µM; in the test on MALME-3M melanoma it was 29.2 µM and 38.5 µM; with MDA-MB-435 it was 36.7 µM; in the test with MOLT-4 leukemia, 21.7 µM. The TGI in the test with SF-539 CNS was 36 µM; with SNB-19 CNS it was over 100 µM; in the test on SNB-75 CNS, > 100 µM and 57.1 µM; in the test on UACC-62 melanoma, 17.7 µM. In addition, the GI50 with HOP-62 NSCLC was 71 µM; in the test on M14 melanoma, 24.4 µM; with MALME-3M melanoma it was 14.2 µM; in the test on MDA-MB-435, 16.8 µM; with SF-539 CNS, 59.3 µM; in the test with SNB-19 CNS, 66.6 µM. In addition, the figures for the GI50 in the test on SNB-75 CNS and with UACC-62 melanoma were 19.4 µM and 48.9 µM, respectively.

With `CC[C@H]1CCC/C=C/[C@@H]2C[C@H](O)C[C@H]2[C@H](O)/C=C/C(=O)O1`, the GI50 in the test with A498 renal is 0.0174 µM; in the test on HOP-62 NSCLC, 0.0809 µM; with M14 melanoma, 0.0376 µM; with MALME-3M melanoma, 0.0381 µM; in the test with MDA-MB-435, 0.0434 µM; with MOLT-4 leukemia, 0.0354 µM. Further, the GI50 was 0.06 µM in the test with SF-539 CNS, 0.0607 µM in the test with SNB-19 CNS, under 0.0119 µM in the test on SNB-75 CNS and 0.0384 µM with UACC-62 melanoma. Further, the TGI in the test with A498 renal is 0.0596 µM; with M14 melanoma, over 100 µM; with MDA-MB-435 it was over 100 µM; with MOLT-4 leukemia, over 100 µM; with SF-539 CNS it was over 100 µM; in the test with SNB-19 CNS it was over 100 µM. For the same molecule, the TGI in the test with SNB-75 CNS is over 100 µM; in the test with UACC-62 melanoma, over 37.7 µM.

For the molecule `O=c1cc(-c2ccccc2)oc2c1ccc1ccccc12`, the GI50 in the test on A498 renal is 11.1 µM; with HOP-62 NSCLC it was 29.6 µM; in the test with M14 melanoma, 61.1 µM; in the test on MALME-3M melanoma it was 29.1 µM; in the test with MDA-MB-435 it was 30 µM; in the test on MOLT-4 leukemia, 23.5 µM. Also, the GI50 in the test with SF-539 CNS was 18.6 µM; in the test with SNB-19 CNS it was 6.1 µM; in the test on SNB-75 CNS, 11.6 µM; in the test on UACC-62 melanoma, 12.3 µM. The TGI with A498 renal was 44.1 µM; with HOP-62 NSCLC, over 100 µM; with M14 melanoma it was over 100 µM; in the test with MALME-3M melanoma, 72.1 µM; in the test on MDA-MB-435, over 100 µM; in the test on MOLT-4 leukemia, 51.5 µM. In addition, the TGI in the test on SF-539 CNS is 76.1 µM; with SNB-19 CNS it was over 100 µM; in the test on SNB-75 CNS, 45.9 µM; with UACC-62 melanoma, over 100 µM.

In the case of `Fc1ccc(-c2ncn(CCCN3CCOCC3)c2-c2ccncc2)cc1`, the GI50 in the test on A498 renal, in the test on HOP-62 NSCLC, with M14 melanoma, with MALME-3M melanoma, in the test on MDA-MB-435 and in the test with MOLT-4 leukemia was over 25 µM in each case. Further, the GI50 in the test with SF-539 CNS, in the test on SNB-19 CNS, with SNB-75 CNS and with UACC-62 melanoma was over 25 µM in each case. In addition, the TGI in the test with A498 renal, in the test on HOP-62 NSCLC, in the test with M14 melanoma, in the test with MALME-3M melanoma, with MDA-MB-435 and in the test with MOLT-4 leukemia was over 25 µM each time. For the same molecule, the TGI with SF-539 CNS, with SNB-19 CNS, in the test on SNB-75 CNS and in the test on UACC-62 melanoma was over 25 µM each time.

For the molecule `FC(F)(F)c1nc(SCc2ccc(Cl)cc2)n[nH]1`, the TGI with A498 renal, in the test with HOP-62 NSCLC, in the test with M14 melanoma, with MALME-3M melanoma, with MDA-MB-435 and with MOLT-4 leukemia was over 100 µM each time. Besides, the TGI in the test with SF-539 CNS, with SNB-19 CNS, with SNB-75 CNS and in the test on UACC-62 melanoma was over 100 µM in each case.
